Reference: the supplement of paper PMC6045584
± gives the standard deviation of the averaged measurements.

Tests used:
[1] = compound: CCN(CC)CCCCNc1ncc2cc(-c3cc(OC)cc(OC)c3)c(NC(=O)NC(C)(C)C)nc2n1; test: surviving fraction relative to DMSO-only wells; higher = less growth inhibition; conditions: exposure time: 5 days
How it was run: (§1)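 Surviving fraction is CellTiter-Glo luminescence divided by the median of wells given DMSO only. For this, log-phase tumour cell lines went into 384-well plates at 250–500 cells per well and, 24 hours later, into five days of continuous inhibitor exposure at 0.5, 1, 5, 10, 50, 100, 500 and 1000 nM. Lines were screened three times and retained only if replicate Pearson r >0.7 and median Z' >0.3.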

2-METHOXYESTRADIOL = compound: COc1cc2c(cc1O)CC[C@@H]1[C@@H]2CC[C@]2(C)[C@@H](O)CC[C@@H]12 [2-METHOXYESTRADIOL]; test: as above; conditions: exposure time: 5 days
How it was run: as §1

Row | Test System | surviving fraction ([1]; 0.5 nM) | surviving fraction ([1]; 1 nM) | surviving fraction ([1]; 5 nM) | surviving fraction ([1]; 10 nM) | surviving fraction ([1]; 50 nM) | surviving fraction ([1]; 100 nM) | surviving fraction ([1]; 500 nM) | surviving fraction ([1]; 1000 nM) | surviving fraction (2-METHOXYESTRADIOL; 0.5 nM) | surviving fraction (2-METHOXYESTRADIOL; 1 nM) | surviving fraction (2-METHOXYESTRADIOL; 5 nM) | surviving fraction (2-METHOXYESTRADIOL; 10 nM) | surviving fraction (2-METHOXYESTRADIOL; 50 nM) | surviving fraction (2-METHOXYESTRADIOL; 100 nM) | surviving fraction (2-METHOXYESTRADIOL; 500 nM) | surviving fraction (2-METHOXYESTRADIOL; 1000 nM)
1 | SCC47 HEADNECK | 0.979 ± 0.033 | 0.993 ± 0.082 | 0.996 ± 0.05 | 1.07 ± 0.047 | 0.968 ± 0.079 | 1 ± 0.14 | 1.05 ± 0.067 | 0.995 ± 0.019 | 0.816 ± 0.11 | 0.912 ± 0.15 | 0.977 ± 0.055 | 1.1 ± 0.16 | 1.09 ± 0.11 | 1.12 ± 0.15 | 0.838 ± 0.046 | 0.872 ± 0.12
2 | SCC90 HEADNECK | 0.884 ± 0.044 | 0.96 ± 0.036 | 0.839 ± 0.18 | 0.951 ± 0.036 | 0.88 ± 0.049 | 0.961 ± 0.17 | 0.883 ± 0.17 | 0.814 ± 0.035 | 0.927 ± 0.058 | 0.721 ± 0.076 | 1.02 ± 0.1 | 0.923 ± 0.12 | 1 ± 0.1 | 0.875 ± 0.099 | 0.185 ± 0.017 | 0.102 ± 0.013
3 | SG27 HEADNECK | 0.947 ± 0.15 | 1.03 ± 0.087 | 1.01 ± 0.12 | 1.01 ± 0.086 | 0.879 ± 0.04 | 0.817 ± 0.032 | 0.784 ± 0.05 | 0.805 ± 0.047 | 1.14 ± 0.19 | 1.2 ± 0.083 | 1.04 ± 0.12 | 1.05 ± 0.081 | 1.05 ± 0.085 | 1.16 ± 0.2 | 1.09 ± 0.062 | 1.03 ± 0.079
4 | SG28 HEADNECK | 1.04 ± 0.15 | 1.09 ± 0.076 | 1.03 ± 0.09 | 1.11 ± 0.034 | 0.968 ± 0.028 | 1.05 ± 0.1 | 0.967 ± 0.091 | 0.938 ± 0.11 | 1.07 ± 0.037 | 1.18 ± 0.096 | 0.94 ± 0.0042 | 1.11 ± 0.016 | 1.11 ± 0.13 | 1.06 ± 0.048 | 1.06 ± 0.066 | 1.02 ± 0.064
5 | SG31 HEADNECK | 1.04 ± 0.055 | 0.949 ± 0.11 | 0.934 ± 0.15 | 0.932 ± 0.12 | 0.845 ± 0.12 | 0.997 ± 0.051 | 0.934 ± 0.069 | 0.934 ± 0.1 | 1.09 ± 0.23 | 1.12 ± 0.13 | 0.996 ± 0.26 | 1.09 ± 0.084 | 1 ± 0.077 | 0.949 ± 0.025 | 1.12 ± 0.13 | 0.962 ± 0.073
6 | SG32 HEADNECK | 1.03 ± 0.14 | 1.05 ± 0.086 | 1.15 ± 0.13 | 1.01 ± 0.16 | 0.859 ± 0.027 | 0.793 ± 0.0076 | 1.36 ± 0.92 | 0.884 ± 0.15 | 1.04 ± 0.1 | 0.985 ± 0.03 | 1.04 ± 0.21 | 0.96 ± 0.083 | 0.947 ± 0.059 | 0.847 ± 0.075 | 0.62 ± 0.12 | 0.34 ± 0.034
7 | SG43 HEADNECK | 0.9 ± 0.076 | 0.971 ± 0.053 | 0.974 ± 0.15 | 0.966 ± 0.095 | 0.85 ± 0.13 | 0.905 ± 0.24 | 0.95 ± 0.12 | 0.811 ± 0.16 | 0.84 ± 0.071 | 0.88 ± 0.13 | 0.807 ± 0.25 | 1.04 ± 0.39 | 0.702 ± 0.091 | 0.854 ± 0.23 | 0.91 ± 0.082 | 0.847 ± 0.11
8 | SIHA CERVIX | 0.945 ± 0.075 | 0.972 ± 0.043 | 1.07 ± 0.055 | 1.07 ± 0.051 | 0.908 ± 0.063 | 0.905 ± 0.098 | 0.776 ± 0.027 | 0.818 ± 0.013 | 0.869 ± 0.011 | 0.902 ± 0.085 | 0.952 ± 0.092 | 0.979 ± 0.057 | 0.973 ± 0.047 | 1.02 ± 0.057 | 0.719 ± 0.062 | 0.611 ± 0.072
9 | SJSA1 BONE | 1.04 ± 0.052 | 1.04 ± 0.026 | 1.04 ± 0.026 | 1.09 ± 0.034 | 1.08 ± 0.021 | 1.07 ± 0.038 | 1.023 ± 0.0089 | 1.04 ± 0.034 | 0.941 ± 0.086 | 1.68 ± 0.14 | 1.73 ± 0.12 | 1.72 ± 0.037 | 1.75 ± 0.13 | 1.77 ± 0.08 | 1.67 ± 0.043 | 1.78 ± 0.08
10 | SKBR3 BREAST | 0.9 ± 0.11 | 0.967 ± 0.072 | 0.975 ± 0.22 | 0.851 ± 0.057 | 0.979 ± 0.13 | 0.992 ± 0.077 | 1 ± 0.05 | 0.848 ± 0.13 | 0.913 ± 0.033 | 0.924 ± 0.16 | 1.09 ± 0.065 | 0.956 ± 0.12 | 0.986 ± 0.079 | 0.986 ± 0.056 | 0.882 ± 0.099 | 0.548 ± 0.051
11 | SNU475 LIVER | 0.785 ± 0.028 | 0.964 ± 0.053 | 0.894 ± 0.05 | 0.987 ± 0.027 | 0.916 ± 0.044 | 0.939 ± 0.019 | 0.906 ± 0.022 | 0.886 ± 0.029 | 0.989 ± 0.048 | 1.01 ± 0.032 | 0.967 ± 0.026 | 0.968 ± 0.06 | 1.02 ± 0.053 | 0.997 ± 0.059 | 0.956 ± 0.057 | 0.775 ± 0.051
12 | SUM44 BREAST | 0.956 ± 0.064 | 0.928 ± 0.04 | 1.03 ± 0.019 | 1.04 ± 0.087 | 1.04 ± 0.095 | 1.04 ± 0.094 | 0.985 ± 0.026 | 1.03 ± 0.037 | 1.14 ± 0.32 | 1.15 ± 0.3 | 1.14 ± 0.23 | 1.12 ± 0.2 | 1.3 ± 0.4 | 1.21 ± 0.33 | 0.837 ± 0.091 | 0.53 ± 0.054
13 | SUM149 BREAST | 0.881 ± 0.14 | 1.12 ± 0.057 | 0.998 ± 0.037 | 1.21 ± 0.049 | 1.03 ± 0.069 | 1.1 ± 0.13 | 1.01 ± 0.056 | 1.08 ± 0.14 | 0.984 ± 0.04 | 0.997 ± 0.052 | 1.07 ± 0.072 | 0.955 ± 0.025 | 1 ± 0.052 | 0.934 ± 0.065 | 0.442 ± 0.052 | 0.133 ± 0.022
14 | SUM149.B1*.S BREAST | 0.852 ± 0.049 | 1 ± 0.017 | 0.952 ± 0.024 | 1.02 ± 0.021 | 0.933 ± 0.029 | 1.06 ± 0.041 | 1.03 ± 0.011 | 1.08 ± 0.017 | 1.04 ± 0.011 | 1.02 ± 0.046 | 1.02 ± 0.025 | 1.02 ± 0.04 | 1.06 ± 0.025 | 1.08 ± 0.019 | 0.968 ± 0.015 | 0.628 ± 0.036
15 | SUM159 BREAST | 1.14 ± 0.3 | 1.1 ± 0.2 | 1.18 ± 0.36 | 1.14 ± 0.26 | 1.12 ± 0.26 | 1.13 ± 0.23 | 1.11 ± 0.21 | 1.18 ± 0.3 | 1.02 ± 0.028 | 1.02 ± 0.028 | 1.01 ± 0.027 | 1.02 ± 0.022 | 1.02 ± 0.023 | 1.04 ± 0.021 | 0.9593 ± 0.0093 | 0.562 ± 0.074
16 | SYO1 SYNOVIAL | 0.786 ± 0.081 | 0.961 ± 0.052 | 0.859 ± 0.044 | 0.868 ± 0.043 | 0.699 ± 0.016 | 0.727 ± 0.056 | 0.669 ± 0.055 | 0.653 ± 0.009 | 0.933 ± 0.044 | 0.93 ± 0.038 | 0.933 ± 0.017 | 0.961 ± 0.046 | 0.946 ± 0.043 | 0.9446 ± 0.0033 | 0.441 ± 0.065 | 0.1008 ± 0.00069
17 | T47D BREAST | 0.967 ± 0.03 | 1.02 ± 0.028 | 1.02 ± 0.047 | 1.01 ± 0.017 | 1.03 ± 0.023 | 1.02 ± 0.043 | 1.02 ± 0.054 | 1.08 ± 0.03 | 1 ± 0.053 | 1.02 ± 0.017 | 0.9847 ± 0.0046 | 1.01 ± 0.038 | 1.06 ± 0.062 | 1.087 ± 0.0062 | 0.783 ± 0.033 | 0.543 ± 0.037
18 | U2OS BONE | 1 ± 0.011 | 0.994 ± 0.026 | 1.03 ± 0.045 | 1.01 ± 0.02 | 0.916 ± 0.012 | 0.825 ± 0.017 | 0.745 ± 0.049 | 0.739 ± 0.0095 | 1.03 ± 0.016 | 1.013 ± 0.0046 | 1.02 ± 0.043 | 1.02 ± 0.017 | 1.06 ± 0.017 | 1.01 ± 0.021 | 0.681 ± 0.02 | 0.359 ± 0.033
19 | VCAP PROSTATE | 0.963 ± 0.068 | 1.07 ± 0.06 | 1.04 ± 0.047 | 1.1 ± 0.028 | 1.06 ± 0.034 | 1.12 ± 0.069 | 0.998 ± 0.059 | 1.01 ± 0.055 | 1.01 ± 0.05 | 0.983 ± 0.13 | 0.919 ± 0.054 | 1.1 ± 0.08 | 0.999 ± 0.075 | 1.06 ± 0.043 | 0.777 ± 0.069 | 0.231 ± 0.059
20 | VP229 BREAST | 1.15 ± 0.079 | 1.09 ± 0.031 | 1.1 ± 0.12 | 1.11 ± 0.028 | 1.22 ± 0.12 | 1.11 ± 0.13 | 1.22 ± 0.061 | 1.15 ± 0.11 | 1.03 ± 0.077 | 1.09 ± 0.15 | 0.954 ± 0.093 | 1.04 ± 0.094 | 1.03 ± 0.15 | 1.18 ± 0.17 | 0.981 ± 0.058 | 0.801 ± 0.11
21 | YAMATO SYNOVIAL | 0.852 ± 0.029 | 1.2 ± 0.13 | 1.19 ± 0.058 | 1.31 ± 0.062 | 1.14 ± 0.024 | 1.37 ± 0.037 | 1.2 ± 0.069 | 1.08 ± 0.088 | 1.06 ± 0.051 | 1.14 ± 0.052 | 1.08 ± 0.079 | 1.16 ± 0.028 | 1.18 ± 0.075 | 1.13 ± 0.11 | 0.521 ± 0.04 | 0.445 ± 0.031
22 | ZR751 BREAST | 0.946 ± 0.032 | 1.03 ± 0.063 | 0.954 ± 0.017 | 1.01 ± 0.19 | 0.912 ± 0.04 | 1.1 ± 0.11 | 1.01 ± 0.067 | 1.05 ± 0.12 | 1.06 ± 0.12 | 1.04 ± 0.097 | 1.02 ± 0.039 | 1.13 ± 0.058 | 1.06 ± 0.048 | 1.04 ± 0.098 | 1.07 ± 0.039 | 0.645 ± 0.11
